This is an account of results in article PMC1298333, “Biochemical characterization of the Arctic char (Salvelinus alpinus) ovarian progestin membrane receptor” (Reproductive biology and endocrinology : RB&E, 2005).

The term Kd denotes a measure of binding affinity in units of concentration. Low values mean a tighter complex, high ones a looser complex.

The target in one test is T1, 17,20beta-P membrane receptor (ovarian membrane progestin receptor, mPR).
T1 construct: gene paqr7; native receptor in crude ovarian plasma membrane fraction (20,000 g pellet)
Briefly: radioligand saturation, filtration assay, Scatchard. It is filed as binding, Salvelinus alpinus. To be noted: labelled compound ([3H]-17,20β-P); ovarian membranes, pH 7.4, +4°C, 30 min.
Compound `C[C@@H](O)[C@@]1(O)CC[C@H]2[C@@H]3CCC4=CC(=O)CC[C@]4(C)[C@H]3CC[C@@]21C` [17,20β-P, 17,20beta-dihydroxy-4-pregnen-3-one] registered a Kd of 0.0138 ± 0.0011 µM.

Another test shares this target. Briefly: competition with [3H]-17, […]β-P, filtration assay. The test is classed as binding, Salvelinus alpinus. To be noted: 7 nM [3H]-17,20β-P, ovarian membranes, pH 7.4, +4°C, 30 min; read-out: Concentration (nM) causing 50% displacement.
In the case of `C[C@]12CC[C@H]3[C@@H](CCC4=CC(=O)CC[C@@]43C)[C@@H]1CC[C@@H]2C(=O)CO` [11-DOC, 11-deoxycorticosterone], the IC50 is 132 nM.
Same read-out and setting: the same measure for `C[C@@H](O)[C@@]1(O)CC[C@H]2[C@@H]3CCC4=CC(=O)CC[C@]4(C)[C@H]3CC[C@@]21C` [17,20β-P, 17,20beta-dihydroxy-4-pregnen-3-one]: 1.25 nM; for `CC(=O)[C@@]1(O)CC[C@H]2[C@@H]3CCC4=CC(=O)CC[C@]4(C)[C@H]3CC[C@@]21C` [17α-OH-P, 17α-hydroxyprogesterone]: 69.3 nM.
Same read-out and setting: in the case of `C[C@]12CCC(=O)C=C1CC[C@@H]1[C@@H]2CC[C@@]2(C)[C@H]1CC[C@]2(O)[C@H](O)CO` [20β-S, 17, 20β, 21-trihydroxy-4-pregnen-3-one] it was 145 nM; in that of `C[C@]12CCC(=O)C=C1CC[C@@H]1[C@@H]2CC[C@@]2(C)[C@H]1CC[C@]2(O)C(=O)CO` [DC, 11-deoxycortisol], 207 nM; in that of `C[C@]12CC[C@@H]3c4ccc(O)cc4CC[C@H]3[C@@H]1CC[C@@H]2O` [E2, 17β-estradiol], 37.9 nM.
Still for that read-out and setting: the same measure for `C[C@]12CCC(=O)C=C1CC[C@@H]1[C@@H]2[C@@H](O)C[C@@]2(C)[C@H]1CC[C@]2(O)C(=O)CO` [F, cortisol]: 14400 nM; for `CC(C)C(=O)Nc1ccc([N+](=O)[O-])c(C(F)(F)F)c1` [Flutamide]: 256 nM.
Consider `CC(=O)[C@H]1CC[C@H]2[C@@H]3CCC4=CC(=O)CC[C@]4(C)[C@H]3CC[C@]12C` [P4, progesterone], for which the IC50 was 52.6 nM.
On the same count and under the same terms, the same measure for `C[C@]12CC[C@H]3[C@@H](CCC4=CC(=O)CC[C@@]43C)[C@@H]1CC[C@@H]2O` [T, testosterone]: 18300 nM; for `CN(C)c1ccc([C@H]2C[C@]3(C)[C@@H](CC[C@]3(O)CCCO)[C@@H]3CCC4=CC(=O)CCC4=C32)cc1` [ZK 98299]: 12900 nM; for `Clc1ccc(C(c2ccccc2Cl)C(Cl)Cl)cc1` (stereo not drawn) [o,p'-DDD]: 549 nM.
In the case of `Clc1ccc(C(c2ccccc2Cl)C(Cl)(Cl)Cl)cc1` (stereo not drawn) [o,p'-DDT], the IC50 worked out at 378 nM.
The same measure, in the same setting: the same measure for ZK 112992: 1180 nM.
